Results: patent publication US10800741B2 (ANCUREALL PHARMACEUTICAL (SHANGHAI) CO., LTD., priority 2017, dated 2020)
Like-named read-outs stand apart in the source and are kept apart here.

What was measured:
Assay in all cases: KINOMEscan in vitro binding to 468 labeled protein kinases
[1] = biological target: T1, protein kinases (Homo sapiens, UniProt P00519); settings: read-out: Test compound/solvent control (%); for remaining binding at 0.001 µM: 1 nM; for remaining binding at 0.01 µM: 10 nM; for remaining binding at 1 µM: 1000 nM
T1 construct: purchased Discovery X company (USA), KINOMEscan screening platform
Description: (§1) Test Example 6 Determination of Binding Affinity of the Present Compounds on Protein Kinases In Vitro
(§2) KINOMEscan screening platform of Discovery X company (USA) was used to identify the binding targets of the present compounds to protein kinases. Compound 66 of the present invention was dissolved in DMSO (Sigma Aldrich) at concentrations of 1000 nM, 10 nM and 1 nM, and then was subjected to in vitro binding reaction with 468 labeled protein kinases. Two samples were taken in parallel for each assay sample.
(§3) The lower the percentage of the test compound to the solvent control, the stronger the binding affinity of the test compound to the protein kinase in vitro.

[2] = biological target: T2, protein kinases (Homo sapiens, UniProt P00519, H396P); settings: read-out: Test compound/solvent control (%); for remaining binding at 0.001 µM: 1 nM; for remaining binding at 0.01 µM: 10 nM; for remaining binding at 1 µM: 1000 nM
T2 construct: purchased Discovery X company (USA), KINOMEscan screening platform
Description: as §1, §2, §3

[3] = biological target: T3, protein kinases (Homo sapiens, UniProt P00519, T315I); settings: read-out: Test compound/solvent control (%); for remaining binding at 0.001 µM: 1 nM; for remaining binding at 0.01 µM: 10 nM; for remaining binding at 1 µM: 1000 nM
T3 construct: purchased Discovery X company (USA), KINOMEscan screening platform
Description: as §1, §2, §3

[4] = biological target: T4, protein kinases (Homo sapiens, UniProt P00533, DEL752-759); settings: EGFR(S752-1759del)
T4 construct: purchased Discovery X company (USA), KINOMEscan screening platform
T4 sequence (P00533 with tags, fused parts or gaps DEL752-759): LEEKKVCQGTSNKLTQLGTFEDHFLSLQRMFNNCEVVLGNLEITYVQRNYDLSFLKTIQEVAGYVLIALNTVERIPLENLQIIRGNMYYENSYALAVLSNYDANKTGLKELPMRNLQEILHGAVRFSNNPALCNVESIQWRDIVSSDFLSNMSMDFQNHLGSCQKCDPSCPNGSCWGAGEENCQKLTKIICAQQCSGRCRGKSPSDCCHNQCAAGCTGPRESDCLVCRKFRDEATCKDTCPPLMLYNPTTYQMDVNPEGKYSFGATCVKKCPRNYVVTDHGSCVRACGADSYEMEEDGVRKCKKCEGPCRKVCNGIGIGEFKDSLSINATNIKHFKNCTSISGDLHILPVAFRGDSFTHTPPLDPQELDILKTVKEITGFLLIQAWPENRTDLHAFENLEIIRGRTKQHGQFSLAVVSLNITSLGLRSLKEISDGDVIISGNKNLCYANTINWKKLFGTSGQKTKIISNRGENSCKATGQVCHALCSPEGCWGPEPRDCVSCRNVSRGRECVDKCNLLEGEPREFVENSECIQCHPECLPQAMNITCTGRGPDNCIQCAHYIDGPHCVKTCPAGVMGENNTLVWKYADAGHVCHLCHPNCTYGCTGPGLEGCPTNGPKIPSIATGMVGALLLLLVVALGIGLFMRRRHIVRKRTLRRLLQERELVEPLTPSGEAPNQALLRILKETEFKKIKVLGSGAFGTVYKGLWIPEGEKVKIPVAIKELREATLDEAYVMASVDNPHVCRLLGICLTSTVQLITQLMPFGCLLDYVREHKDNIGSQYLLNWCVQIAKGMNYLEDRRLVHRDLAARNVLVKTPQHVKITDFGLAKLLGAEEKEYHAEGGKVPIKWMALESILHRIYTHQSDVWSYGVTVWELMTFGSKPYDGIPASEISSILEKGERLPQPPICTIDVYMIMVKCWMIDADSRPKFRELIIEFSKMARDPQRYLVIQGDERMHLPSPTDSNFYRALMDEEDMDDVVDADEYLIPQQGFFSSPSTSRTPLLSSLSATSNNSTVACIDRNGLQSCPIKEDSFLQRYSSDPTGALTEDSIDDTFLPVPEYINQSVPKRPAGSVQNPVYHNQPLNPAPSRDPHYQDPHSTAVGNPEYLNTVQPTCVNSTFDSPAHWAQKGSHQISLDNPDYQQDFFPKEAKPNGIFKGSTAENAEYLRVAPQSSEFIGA
Description: as §1, §2, §3

[5] = biological target: T5, protein kinases (Homo sapiens, UniProt P00533, L858R/T790M); settings: EGFR(L858R,T790M)
T5 construct: purchased Discovery X company (USA), KINOMEscan screening platform
Description: as §1, §2, §3

[6] = biological target: T6, protein kinases (Homo sapiens, UniProt P07949); settings: RET, read-out: Test compound/solvent control (%)
T6 construct: purchased Discovery X company (USA), KINOMEscan screening platform
T6 sequence (P07949 29-1114): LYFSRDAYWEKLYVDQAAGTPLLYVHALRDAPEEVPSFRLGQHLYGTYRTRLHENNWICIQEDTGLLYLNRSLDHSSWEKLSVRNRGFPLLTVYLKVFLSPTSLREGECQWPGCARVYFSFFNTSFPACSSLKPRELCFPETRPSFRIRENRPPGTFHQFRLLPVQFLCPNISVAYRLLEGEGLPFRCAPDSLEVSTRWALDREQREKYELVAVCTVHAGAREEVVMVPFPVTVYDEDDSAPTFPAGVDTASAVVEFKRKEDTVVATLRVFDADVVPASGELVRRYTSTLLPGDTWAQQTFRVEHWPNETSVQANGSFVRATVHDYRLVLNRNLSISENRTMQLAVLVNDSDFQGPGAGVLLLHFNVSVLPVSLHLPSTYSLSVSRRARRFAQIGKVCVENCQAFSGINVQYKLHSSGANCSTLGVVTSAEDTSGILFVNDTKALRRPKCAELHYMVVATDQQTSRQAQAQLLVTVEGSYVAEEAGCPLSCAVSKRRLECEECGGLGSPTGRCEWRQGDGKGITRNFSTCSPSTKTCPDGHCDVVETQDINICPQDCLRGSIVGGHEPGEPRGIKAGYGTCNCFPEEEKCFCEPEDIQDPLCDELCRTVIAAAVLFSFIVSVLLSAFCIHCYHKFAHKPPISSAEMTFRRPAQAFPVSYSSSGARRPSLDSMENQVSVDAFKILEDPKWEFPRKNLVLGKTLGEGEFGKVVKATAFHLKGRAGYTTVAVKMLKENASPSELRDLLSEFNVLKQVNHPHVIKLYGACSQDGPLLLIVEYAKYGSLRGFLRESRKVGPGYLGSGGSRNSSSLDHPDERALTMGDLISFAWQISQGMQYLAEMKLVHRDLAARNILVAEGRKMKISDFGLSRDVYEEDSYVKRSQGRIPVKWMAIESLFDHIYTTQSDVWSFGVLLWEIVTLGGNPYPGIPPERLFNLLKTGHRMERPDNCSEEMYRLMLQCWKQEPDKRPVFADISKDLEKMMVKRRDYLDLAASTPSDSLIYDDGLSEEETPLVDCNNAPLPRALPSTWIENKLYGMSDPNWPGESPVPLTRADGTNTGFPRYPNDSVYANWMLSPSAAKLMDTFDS
Description: as §1, §2, §3

[7] = biological target: T7, protein kinases (Homo sapiens, UniProt P07949, V804L); settings: RET(V804L), read-out: Test compound/solvent control (%)
T7 construct: purchased Discovery X company (USA), KINOMEscan screening platform
T7 sequence (P07949 29-1114 V804L): as the sequence (P07949 29-1114) above, with V776L counted along it
Description: as §1, §2, §3

[8] = biological target: T8, protein kinases (Homo sapiens, UniProt P07949, V804M); settings: RET(V804M), read-out: Test compound/solvent control (%)
T8 construct: purchased Discovery X company (USA), KINOMEscan screening platform
T8 sequence (P07949 29-1114 V804M): as the sequence (P07949 29-1114) above, with V776M counted along it
Description: as §1, §2, §3

[9] = biological target: T9, protein kinases (Homo sapiens, UniProt P08922); settings: ROS1, read-out: Test compound/solvent control (%)
T9 construct: purchased Discovery X company (USA), KINOMEscan screening platform
Description: as §1, §2, §3

[10] = biological target: T10, protein kinases (Homo sapiens, UniProt P10721, L576P); settings: KIT(L576P), read-out: Test compound/solvent control (%)
T10 construct: purchased Discovery X company (USA), KINOMEscan screening platform
Description: as §1, §2, §3

[11] = biological target: T11, protein kinases (Homo sapiens, UniProt P12931); settings: SRC, read-out: Test compound/solvent control (%)
T11 construct: purchased Discovery X company (USA), KINOMEscan screening platform
T11 sequence (P12931 whole entry): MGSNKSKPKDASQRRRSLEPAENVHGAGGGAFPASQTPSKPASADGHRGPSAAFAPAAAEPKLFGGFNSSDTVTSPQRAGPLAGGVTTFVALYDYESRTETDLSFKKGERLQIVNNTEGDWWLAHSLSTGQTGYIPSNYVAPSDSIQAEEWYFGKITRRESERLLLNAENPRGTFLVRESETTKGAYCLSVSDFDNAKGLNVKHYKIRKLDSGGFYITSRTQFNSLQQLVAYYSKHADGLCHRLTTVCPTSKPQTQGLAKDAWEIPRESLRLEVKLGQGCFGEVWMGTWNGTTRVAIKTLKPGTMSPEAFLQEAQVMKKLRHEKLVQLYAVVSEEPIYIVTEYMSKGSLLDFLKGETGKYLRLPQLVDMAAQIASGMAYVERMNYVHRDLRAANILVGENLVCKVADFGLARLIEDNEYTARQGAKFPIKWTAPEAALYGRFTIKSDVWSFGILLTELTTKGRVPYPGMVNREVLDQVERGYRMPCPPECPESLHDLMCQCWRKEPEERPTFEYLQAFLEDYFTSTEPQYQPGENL
Description: as §1, §2, §3

[12] = biological target: T12, protein kinases (Homo sapiens, UniProt P21802); settings: FGFR2, read-out: Test compound/solvent control (%)
T12 construct: purchased Discovery X company (USA), KINOMEscan screening platform
Description: as §1, §2, §3

[13] = biological target: T13, protein kinases (Homo sapiens, UniProt P22607); settings: FGFR3, read-out: Test compound/solvent control (%)
T13 construct: purchased Discovery X company (USA), KINOMEscan screening platform
T13 sequence (P22607 23-806): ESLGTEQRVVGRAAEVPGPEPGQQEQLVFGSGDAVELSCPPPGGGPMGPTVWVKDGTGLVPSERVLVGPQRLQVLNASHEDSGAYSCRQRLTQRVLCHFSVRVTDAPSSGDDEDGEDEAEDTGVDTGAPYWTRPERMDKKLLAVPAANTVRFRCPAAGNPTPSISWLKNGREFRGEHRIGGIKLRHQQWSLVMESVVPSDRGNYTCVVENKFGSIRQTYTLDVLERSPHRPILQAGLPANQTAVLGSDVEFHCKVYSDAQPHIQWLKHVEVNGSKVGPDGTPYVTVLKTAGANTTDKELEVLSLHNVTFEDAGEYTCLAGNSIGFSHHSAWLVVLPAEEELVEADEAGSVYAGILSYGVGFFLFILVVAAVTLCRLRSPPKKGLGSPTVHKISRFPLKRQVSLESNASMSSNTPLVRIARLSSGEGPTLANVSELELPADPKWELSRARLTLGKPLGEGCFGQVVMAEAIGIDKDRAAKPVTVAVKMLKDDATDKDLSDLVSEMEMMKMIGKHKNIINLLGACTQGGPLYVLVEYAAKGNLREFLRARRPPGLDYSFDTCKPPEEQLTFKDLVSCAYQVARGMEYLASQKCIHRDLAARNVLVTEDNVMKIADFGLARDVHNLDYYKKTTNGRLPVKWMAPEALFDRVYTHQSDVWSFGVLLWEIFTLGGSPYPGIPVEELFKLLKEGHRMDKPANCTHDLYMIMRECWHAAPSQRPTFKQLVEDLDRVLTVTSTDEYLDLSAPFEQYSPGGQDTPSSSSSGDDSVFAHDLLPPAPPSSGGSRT
Description: as §1, §2, §3

[14] = biological target: T14, protein kinases (Homo sapiens, UniProt Q02763); settings: TIE2, read-out: Test compound/solvent control (%)
T14 construct: purchased Discovery X company (USA), KINOMEscan screening platform
T14 sequence (Q02763 23-1124): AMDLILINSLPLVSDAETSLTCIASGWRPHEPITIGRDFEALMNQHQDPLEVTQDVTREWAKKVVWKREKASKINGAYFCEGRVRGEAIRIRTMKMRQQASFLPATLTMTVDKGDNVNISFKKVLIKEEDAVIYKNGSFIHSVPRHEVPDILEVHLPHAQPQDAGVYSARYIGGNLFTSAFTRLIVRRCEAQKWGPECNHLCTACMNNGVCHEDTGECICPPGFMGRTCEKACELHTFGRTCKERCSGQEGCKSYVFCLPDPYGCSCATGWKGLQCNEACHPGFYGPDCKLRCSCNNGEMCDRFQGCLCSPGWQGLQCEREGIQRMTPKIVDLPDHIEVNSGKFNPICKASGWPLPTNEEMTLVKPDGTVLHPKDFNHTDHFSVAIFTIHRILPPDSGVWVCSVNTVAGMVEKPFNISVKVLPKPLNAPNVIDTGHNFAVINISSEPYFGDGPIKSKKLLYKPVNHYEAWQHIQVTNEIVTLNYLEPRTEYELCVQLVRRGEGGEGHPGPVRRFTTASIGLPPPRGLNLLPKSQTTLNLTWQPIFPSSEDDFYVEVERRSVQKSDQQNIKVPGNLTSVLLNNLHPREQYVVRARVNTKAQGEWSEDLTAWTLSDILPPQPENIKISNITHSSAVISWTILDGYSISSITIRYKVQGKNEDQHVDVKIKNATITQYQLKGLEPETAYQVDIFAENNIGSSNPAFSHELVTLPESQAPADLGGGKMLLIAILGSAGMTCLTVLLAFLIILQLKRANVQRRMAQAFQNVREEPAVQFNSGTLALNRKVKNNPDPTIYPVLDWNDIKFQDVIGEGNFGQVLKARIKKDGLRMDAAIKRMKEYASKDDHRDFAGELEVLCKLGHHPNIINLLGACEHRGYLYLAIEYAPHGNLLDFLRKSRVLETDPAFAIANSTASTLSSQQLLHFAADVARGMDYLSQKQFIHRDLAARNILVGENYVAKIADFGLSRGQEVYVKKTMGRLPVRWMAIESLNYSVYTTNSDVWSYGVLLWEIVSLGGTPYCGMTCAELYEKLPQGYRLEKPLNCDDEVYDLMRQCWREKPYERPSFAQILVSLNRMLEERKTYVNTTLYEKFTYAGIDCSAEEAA
Description: as §1, §2, §3

[15] = biological target: T15, protein kinases (Homo sapiens, UniProt Q9UKE5); settings: TNIK, read-out: Test compound/solvent control (%)
T15 construct: purchased Discovery X company (USA), KINOMEscan screening platform
Description: as §1, §2, §3

[16] = test system: protein kinases
Description: as §1, §2, §3

With `COCCOc1cc2nccc(Oc3ccc(NC(=O)Nc4cc(C(C)(C)C)n[nH]4)c(Cl)c3)c2cc1NC(C)=O` [Compound 66, N-[4-{4-[3-(5-tert-butyl-2H-pyrazol-3-yl)-ureido]-3-chloro-phenoxy}-7-(2-methoxy-ethoxy)-quinolin-6-yl]-acetamide] the remaining binding at 0.001 µM ([1]; ABL1-phosphorylated) was 49%, the remaining binding at 0.01 µM ([1]; ABL1-phosphorylated) was 9.9% and the remaining binding at 1 µM ([1]; ABL1-phosphorylated) was 0.1%. For the same compound, the remaining binding at 0.001 µM ([1]; ABL1-unphosphorylated) was 41%, the remaining binding at 0.01 µM ([1]; ABL1-unphosphorylated) was 8.3% and the remaining binding at 1 µM ([1]; ABL1-unphosphorylated) was 0%. The remaining binding at 0.001 µM ([2]; ABL1(H396P)-phosphorylated) was 55%, the remaining binding at 0.01 µM ([2]; ABL1(H396P)-phosphorylated) was 9.7% and the remaining binding at 1 µM ([2]; ABL1(H396P)-phosphorylated) was 0%. It also gave a remaining binding at 0.001 µM ([2]; ABL1(H396P)-unphosphorylated) of 27%, a remaining binding at 0.01 µM ([2]; ABL1(H396P)-unphosphorylated) of 1.8% and a remaining binding at 1 µM ([2]; ABL1(H396P)-unphosphorylated) of 0.05%. For the same compound, the remaining binding at 0.001 µM ([3]; ABL1(T315I)-phosphorylated) was 100%, the remaining binding at 0.01 µM ([3]; ABL1(T315I)-phosphorylated) was 34% and the remaining binding at 1 µM ([3]; ABL1(T315I)-phosphorylated) was 0.45%. The remaining binding at 0.001 µM ([3]; ABL1(T315I)-unphosphorylated) was 96%, the remaining binding at 0.01 µM ([3]; ABL1(T315I)-unphosphorylated) was 32% and the remaining binding at 1 µM ([3]; ABL1(T315I)-unphosphorylated) was 0.15%. For the same compound, the “Test compound/solvent control (%)” value ([4]; 1 nM) was 90%, the “Test compound/solvent control (%)” value ([4]; 10 nM) was 29% and the “Test compound/solvent control (%)” value ([4]; 1000 nM) was 0%. For the same compound, the “Test compound/solvent control (%)” value ([5]; 1 nM) was 64%, the “Test compound/solvent control (%)” value ([5]; 10 nM) was 21% and the “Test compound/solvent control (%)” value ([5]; 1000 nM) was 0.7%. For the same compound, the remaining binding at 0.001 µM ([6]; 1 nM) was 85%, the remaining binding at 0.01 µM ([6]; 10 nM) was 17% and the remaining binding at 1 µM ([6]; 1000 nM) was 0%. For the same compound, the remaining binding at 0.001 µM ([7]; 1 nM) was 88%, the remaining binding at 0.01 µM ([7]; 10 nM) was 17% and the remaining binding at 1 µM ([7]; 1000 nM) was 0%. It also gave a remaining binding at 0.001 µM ([8]; 1 nM) of 100%, a remaining binding at 0.01 µM ([8]; 10 nM) of 34% and a remaining binding at 1 µM ([8]; 1000 nM) of 0%. The remaining binding at 0.001 µM ([9]; 1 nM) was 85%, the remaining binding at 0.01 µM ([9]; 10 nM) was 17% and the remaining binding at 1 µM ([9]; 1000 nM) was 4.6%. The remaining binding at 0.001 µM ([10]; 1 nM) was 95%, the remaining binding at 0.01 µM ([10]; 10 nM) was 32% and the remaining binding at 1 µM ([10]; 1000 nM) was 0%. The remaining binding at 0.001 µM ([11]; 1 nM) was 36%, the remaining binding at 0.01 µM ([11]; 10 nM) was 1.4% and the remaining binding at 1 µM ([11]; 1000 nM) was 0.1%. It also gave a remaining binding at 0.001 µM ([12]; 1 nM) of 93%, a remaining binding at 0.01 µM ([12]; 10 nM) of 71% and a remaining binding at 1 µM ([12]; 1000 nM) of 0.25%. The remaining binding at 0.001 µM ([13]; 1 nM) was 100%, the remaining binding at 0.01 µM ([13]; 10 nM) was 82% and the remaining binding at 1 µM ([13]; 1000 nM) was 0.2%. The remaining binding at 0.001 µM ([14]; 1 nM) was 59%, the remaining binding at 0.01 µM ([14]; 10 nM) was 3.8% and the remaining binding at 1 µM ([14]; 1000 nM) was 0.95%. For the same compound, the remaining binding at 0.001 µM ([15]; 1 nM) was 44%, the remaining binding at 0.01 µM ([15]; 10 nM) was 6.4% and the remaining binding at 1 µM ([15]; 1000 nM) was 7%. The “Test compound/solvent control (%)” value ([16]; EGFR(L747-E749del, A750P), 1 nM) was 92%, the “Test compound/solvent control (%)” value ([16]; EGFR(L747-E749del, A750P), 10 nM) was 11% and the “Test compound/solvent control (%)” value ([16]; EGFR(L747-E749del, A750P), 1000 nM) was 0%. The “Test compound/solvent control (%)” value ([16]; EGFR(L747-S752del, P753S), 1 nM) was 67%, the “Test compound/solvent control (%)” value ([16]; EGFR(L747-S752del, P753S), 10 nM) was 16% and the “Test compound/solvent control (%)” value ([16]; EGFR(L747-S752del, P753S), 1000 nM) was 1.6%. The “Test compound/solvent control (%)” value ([16]; EGFR(L747-T751del, Sins), 1 nM) was 68%, the “Test compound/solvent control (%)” value ([16]; EGFR(L747-T751del, Sins), 10 nM) was 11% and the “Test compound/solvent control (%)” value ([16]; EGFR(L747-T751del, Sins), 1000 nM) was 2.7%.
